Active and inactive are the calls of the source. How the calls were made is not given here.
Test system: CCRIS mutagenicity, Ames/micronucleus/aberration tests
Assay: CCRIS mutagenicity studies

With CC(=O)Nc1ccc(O)cc1 the mutagenic call (End Point: IN VITRO MICRONUCLEUS, Test System: CHL/IU CELLS, Metabolic Activation: NONE) was “active; positive”, the mutagenic call (End Point: IN VITRO MICRONUCLEUS, Test System: RAT KIDNEY FIBROBLAST NRK-49F, Metabolic Activation: NONE) was “active; positive” and the mutagenic call (Test System: AMES SALMONELLA TYPHIMURIUM, Strain/Indicator: TA97, Metabolic Activation: NONE, Method: STANDARD PLATE) was “inactive; negative”. The mutagenic call (Test System: AMES SALMONELLA TYPHIMURIUM, Strain/Indicator: TA97, Metabolic Activation: RAT, LIVER, S-9, AROCLOR 1254, Method: STANDARD PLATE) was “inactive; negative”, the mutagenic call (Test System: AMES SALMONELLA TYPHIMURIUM, Strain/Indicator: TA98, Metabolic Activation: GUINEA PIG, LIVER, S-9, PCB, Method: PREINCUBATION) was “inactive; negative” and the mutagenic call (Test System: AMES SALMONELLA TYPHIMURIUM, Strain/Indicator: TA98, Metabolic Activation: HAMSTER, LIVER, S-9, AROCLOR 1254 (10%), Method: PREINCUBATION) was “inactive; negative”. For the same compound, the mutagenic call (Test System: AMES SALMONELLA TYPHIMURIUM, Strain/Indicator: TA98, Metabolic Activation: HAMSTER, LIVER, S-9, AROCLOR 1254, Method: STANDARD PLATE) was “inactive; negative”, the mutagenic call (Test System: AMES SALMONELLA TYPHIMURIUM, Strain/Indicator: TA98, Metabolic Activation: HAMSTER, LIVER, S-9, PCB, Method: PREINCUBATION) was “inactive; negative” and the mutagenic call (Test System: AMES SALMONELLA TYPHIMURIUM, Strain/Indicator: TA98, Metabolic Activation: MOUSE, LIVER, S-9, AROCLOR 1254, Method: STANDARD PLATE) was “inactive; negative”. The mutagenic call (Test System: AMES SALMONELLA TYPHIMURIUM, Strain/Indicator: TA98, Metabolic Activation: MOUSE, LIVER, S-9, PCB, Method: PREINCUBATION) was “inactive; negative”, the mutagenic call (Test System: AMES SALMONELLA TYPHIMURIUM, Strain/Indicator: TA98, Metabolic Activation: NONE, Method: PREINCUBATION) was “inactive; negative” and the mutagenic call (Test System: AMES SALMONELLA TYPHIMURIUM, Strain/Indicator: TA98, Metabolic Activation: NONE, Method: STANDARD PLATE) was “inactive; negative”. The mutagenic call (Test System: AMES SALMONELLA TYPHIMURIUM, Strain/Indicator: TA98, Metabolic Activation: RAT, LIVER, S-9, AROCLOR 1254 (10%), Method: PREINCUBATION) was “inactive; negative”, the mutagenic call (Test System: AMES SALMONELLA TYPHIMURIUM, Strain/Indicator: TA98, Metabolic Activation: RAT, LIVER, S-9, AROCLOR 1254, Method: STANDARD PLATE) was “inactive; negative” and the mutagenic call (Test System: AMES SALMONELLA TYPHIMURIUM, Strain/Indicator: TA98, Metabolic Activation: RAT, LIVER, S-9, ETHANOL, Method: STANDARD PLATE) was “inactive; negative”. The mutagenic call (Test System: AMES SALMONELLA TYPHIMURIUM, Strain/Indicator: TA98, Metabolic Activation: RAT, LIVER, S-9, PCB, Method: PREINCUBATION) was “inactive; negative”, the mutagenic call (Test System: AMES SALMONELLA TYPHIMURIUM, Strain/Indicator: TA98, Metabolic Activation: RAT, LIVER, S-9, PYRAZOLE, Method: STANDARD PLATE) was “inactive; negative” and the mutagenic call (Test System: AMES SALMONELLA TYPHIMURIUM, Strain/Indicator: TA100, Metabolic Activation: GUINEA PIG, LIVER, S-9, PCB, Method: PREINCUBATION) was “inactive; negative”. For the same compound, the mutagenic call (Test System: AMES SALMONELLA TYPHIMURIUM, Strain/Indicator: TA100, Metabolic Activation: HAMSTER, LIVER, S-9, AROCLOR 1254 (10%), Method: PREINCUBATION) was “inactive; negative”, the mutagenic call (Test System: AMES SALMONELLA TYPHIMURIUM, Strain/Indicator: TA100, Metabolic Activation: HAMSTER, LIVER, S-9, AROCLOR 1254, Method: STANDARD PLATE) was “inactive; negative” and the mutagenic call (Test System: AMES SALMONELLA TYPHIMURIUM, Strain/Indicator: TA100, Metabolic Activation: HAMSTER, LIVER, S-9, PCB, Method: PREINCUBATION) was “active; positive”. The mutagenic call (Test System: AMES SALMONELLA TYPHIMURIUM, Strain/Indicator: TA100, Metabolic Activation: MOUSE, LIVER, S-9, AROCLOR 1254, Method: STANDARD PLATE) was “inactive; negative”, the mutagenic call (Test System: AMES SALMONELLA TYPHIMURIUM, Strain/Indicator: TA100, Metabolic Activation: MOUSE, LIVER, S-9, PCB, Method: PREINCUBATION) was “inactive; negative” and the mutagenic call (Test System: AMES SALMONELLA TYPHIMURIUM, Strain/Indicator: TA100, Metabolic Activation: NONE, Method: PREINCUBATION) was “inactive; negative”. The mutagenic call (Test System: AMES SALMONELLA TYPHIMURIUM, Strain/Indicator: TA100, Metabolic Activation: NONE, Method: STANDARD PLATE) was “inactive; negative”, the mutagenic call (Test System: AMES SALMONELLA TYPHIMURIUM, Strain/Indicator: TA100, Metabolic Activation: RAT, LIVER, S-9, AROCLOR 1254 (10%), Method: PREINCUBATION) was “inactive; negative” and the mutagenic call (Test System: AMES SALMONELLA TYPHIMURIUM, Strain/Indicator: TA100, Metabolic Activation: RAT, LIVER, S-9, AROCLOR 1254, Method: STANDARD PLATE) was “inactive; negative”. The mutagenic call (Test System: AMES SALMONELLA TYPHIMURIUM, Strain/Indicator: TA100, Metabolic Activation: RAT, LIVER, S-9, ETHANOL, Method: STANDARD PLATE) was “inactive; negative”, the mutagenic call (Test System: AMES SALMONELLA TYPHIMURIUM, Strain/Indicator: TA100, Metabolic Activation: RAT, LIVER, S-9, PCB, Method: PREINCUBATION) was “inactive; negative” and the mutagenic call (Test System: AMES SALMONELLA TYPHIMURIUM, Strain/Indicator: TA100, Metabolic Activation: RAT, LIVER, S-9, PYRAZOLE, Method: STANDARD PLATE) was “inactive; negative”. For the same compound, the mutagenic call (Test System: AMES SALMONELLA TYPHIMURIUM, Strain/Indicator: TA102, Metabolic Activation: RAT, LIVER, S-9, ETHANOL, Method: STANDARD PLATE) was “inactive; negative”, the mutagenic call (Test System: AMES SALMONELLA TYPHIMURIUM, Strain/Indicator: TA102, Metabolic Activation: RAT, LIVER, S-9, PYRAZOLE, Method: STANDARD PLATE) was “inactive; negative” and the mutagenic call (Test System: AMES SALMONELLA TYPHIMURIUM, Strain/Indicator: TA1535, Metabolic Activation: HAMSTER, LIVER, S-9, AROCLOR 1254 (10%), Method: PREINCUBATION) was “inactive; negative”. For the same compound, the mutagenic call (Test System: AMES SALMONELLA TYPHIMURIUM, Strain/Indicator: TA1535, Metabolic Activation: HAMSTER, LIVER, S-9, AROCLOR 1254, Method: STANDARD PLATE) was “inactive; negative”, the mutagenic call (Test System: AMES SALMONELLA TYPHIMURIUM, Strain/Indicator: TA1535, Metabolic Activation: MOUSE, LIVER, S-9, AROCLOR 1254, Method: STANDARD PLATE) was “inactive; negative” and the mutagenic call (Test System: AMES SALMONELLA TYPHIMURIUM, Strain/Indicator: TA1535, Metabolic Activation: NONE, Method: PREINCUBATION) was “inactive; negative”. The mutagenic call (Test System: AMES SALMONELLA TYPHIMURIUM, Strain/Indicator: TA1535, Metabolic Activation: NONE, Method: STANDARD PLATE) was “inactive; negative”, the mutagenic call (Test System: AMES SALMONELLA TYPHIMURIUM, Strain/Indicator: TA1535, Metabolic Activation: RAT, LIVER, S-9, AROCLOR 1254 (10%), Method: PREINCUBATION) was “inactive; negative” and the mutagenic call (Test System: AMES SALMONELLA TYPHIMURIUM, Strain/Indicator: TA1535, Metabolic Activation: RAT, LIVER, S-9, AROCLOR 1254, Method: STANDARD PLATE) was “inactive; negative”. For the same compound, the mutagenic call (Test System: AMES SALMONELLA TYPHIMURIUM, Strain/Indicator: TA1535, Metabolic Activation: RAT, LIVER, S-9, PYRAZOLE, Method: STANDARD PLATE) was “inactive; negative”, the mutagenic call (Test System: AMES SALMONELLA TYPHIMURIUM, Strain/Indicator: TA1537, Metabolic Activation: HAMSTER, LIVER, S-9, AROCLOR 1254 (10%), Method: PREINCUBATION) was “inactive; negative” and the mutagenic call (Test System: AMES SALMONELLA TYPHIMURIUM, Strain/Indicator: TA1537, Metabolic Activation: HAMSTER, LIVER, S-9, AROCLOR 1254, Method: STANDARD PLATE) was “inactive; negative”. The mutagenic call (Test System: AMES SALMONELLA TYPHIMURIUM, Strain/Indicator: TA1537, Metabolic Activation: MOUSE, LIVER, S-9, AROCLOR 1254, Method: STANDARD PLATE) was “inactive; negative”, the mutagenic call (Test System: AMES SALMONELLA TYPHIMURIUM, Strain/Indicator: TA1537, Metabolic Activation: NONE, Method: PREINCUBATION) was “inactive; negative” and the mutagenic call (Test System: AMES SALMONELLA TYPHIMURIUM, Strain/Indicator: TA1537, Metabolic Activation: NONE, Method: STANDARD PLATE) was “inactive; negative”. For the same compound, the mutagenic call (Test System: AMES SALMONELLA TYPHIMURIUM, Strain/Indicator: TA1537, Metabolic Activation: RAT, LIVER, S-9, AROCLOR 1254 (10%), Method: PREINCUBATION) was “inactive; negative”, the mutagenic call (Test System: AMES SALMONELLA TYPHIMURIUM, Strain/Indicator: TA1537, Metabolic Activation: RAT, LIVER, S-9, AROCLOR 1254, Method: STANDARD PLATE) was “inactive; negative” and the mutagenic call (Test System: AMES SALMONELLA TYPHIMURIUM, Strain/Indicator: TA1537, Metabolic Activation: RAT, LIVER, S-9, PYRAZOLE, Method: STANDARD PLATE) was “inactive; negative”. For the same compound, the mutagenic call (Test System: AMES SALMONELLA TYPHIMURIUM, Strain/Indicator: TA1538, Metabolic Activation: HAMSTER, LIVER, S-9, AROCLOR 1254, Method: STANDARD PLATE) was “inactive; negative”, the mutagenic call (Test System: AMES SALMONELLA TYPHIMURIUM, Strain/Indicator: TA1538, Metabolic Activation: MOUSE, LIVER, S-9, AROCLOR 1254, Method: STANDARD PLATE) was “inactive; negative” and the mutagenic call (Test System: AMES SALMONELLA TYPHIMURIUM, Strain/Indicator: TA1538, Metabolic Activation: NONE, Method: STANDARD PLATE) was “inactive; negative”. For the same compound, the mutagenic call (Test System: AMES SALMONELLA TYPHIMURIUM, Strain/Indicator: TA1538, Metabolic Activation: RAT, LIVER, S-9, AROCLOR 1254, Method: STANDARD PLATE) was “inactive; negative” and the mutagenic call (Test System: TEST SALMONELLA TYPHIMURIUM, Strain/Indicator: TA1537, Metabolic Activation: RAT, LIVER, S-9, AROCLOR 1254, Method: STANDARD PLATE) was “inactive; negative”.

— PubChem BioAssay AID1259407 (Chemical Carcinogenesis Research Information System (CCRIS), 2018)
